Series [1] is described as follows: Maximum solubility / solubilisation of organic compounds in ionic liquid/basic aqueous solution mixtures (flask method). Particulars: for solubility: thermodynamic from solid; for natural solubility in a solution of pH=14: pH=14, without ionic liquid; for concentration of solution obtained: KOH 2M.
Procedure: (§1) 100 mg of the targeted organic compound are introduced into a flask as well as the desired quantity of ionic liquid to be tested. A basic aqueous solution is added in portions of 0.1 mL until a solution is obtained. The maximum concentration is then determined in accordance with the following formula:
Cmax=[mcompound/Mcompound]/V
(§2) Cmax is the maximum concentration of given organic molecule in mol·L^−1, mcompound is the mass of the introduced organic molecule (in g), Mcompound is the molar mass of this organic molecule (in g·mol^−1) and V is the volume of added aqueous solution (in L).
(§3) The quinone is introduced into a volumetric flask (the quantity is dependent on the targeted concentration, generally between 0.1 and 0.5 M). The liquid is added (the quantity is dependent on the solubilising power of the ionic liquid, in stoichiometric quantity in relation to the quinone). An aqueous solution containing hydroxide ions at a concentration between 0.1 and 5 M is added until the flask is full.
The next series in a line: physchem. To be noted: aqueous with cosolvent or surfactant or cyclodextrin, thermodynamic from solid, Solubility in KOH 2 mol · L^−1 and ionic liquid: Anthraquinone.
Series [2] can be described thus: Cyclic voltammetry of electrolytic solutions. The series is classed as physicochemical. To be noted: vitreous carbon electrode. Here is the method:
The action of the ionic liquids on the solubility of the organic molecules can be observed by a simple electrochemical analysis. The method used is voltammetry with linear variation of the potential. The result is the plotting of a curve i=f(E) of which the value of the oxidation or reduction current of the electroactive molecule is proportional to its concentration in solution. The electrochemical analyses are performed in an electrochemical cell of which the volume is 40 ml. The volume of the solutions introduced into the electrochemical cell is 10 ml.
In order to perform the analyses, three electrodes immersed in the solution are used: • Working electrode. The working electrode is the location of the studied electrochemical reaction. In this instance, an electrode which is made of vitreous carbon and has a surface of 3 mm diameter, or a nickel electrode of 5 mm diameter was used. The electrochemical reactions are often sensitive to the nature of the electrodes. For example, depending on their nature, some electrodes may passivate and others may not, compared to the same electrochemical system in solution. • Counter electrode. The counter electrode enables the passage of the current in the solution between itself and the working electrode. This electrode must be very stable (for example must not dissolve in the event of oxidation). […]

Setting [3] is: aqueous KOH solution with ionic liquid, aqueous with cosolvent or surfactant or cyclodextrin, Solubility in KOH 2 mol · L^−1 and ionic liquid: Anthraquinone, KOH 2 mol·L^−1, ionic liquid (I-a), (I-b) or (I-c) 0.5 mol·L^−1.
Where [4] appears, read: aqueous KOH solution without ionic liquid, aqueous buffer, Solubility in KOH 2 mol · L^−1, aqueous KOH 2 mol·L^−1, without ionic liquid.

Values after ≈ are worked out from the molar mass of the structure shown. Like-named read-outs stand apart in the source and are kept apart here. Bounds are passed on as bounds.

Usually solubility stands for how much of the substance goes into solution per volume.

Procedure for physchem: as §1
Cmax=[mcompound/Mcompound]/V
as §2, §3

As to `O=C1c2ccccc2C(=O)c2cc(S(=O)(=O)O)ccc21`, the solubility in series [1] (setting [3]) is 100 mM (≈ 28.8 mg/mL); in series [1] (setting [4]), less than 100 mM. Moreover, in series [1], the “natural solubility in a solution of pH=14” value (shortened to “natural solubility”) is recorded as “very weak”.
`O=C1c2ccccc2C(=O)c2ccccc21`: the “natural solubility” value is on record as “very weak”. In the series “physchem”, the solubility was less than 100 mM.
Regarding `O=C1c2ccccc2C(=O)c2c1ccc(O)c2O` [alizarin, Alizarin], the “concentration of solution obtained” value is listed as “greater than 0.5 M” in series [1] (1,3-dimethylimidazolium methyl sulfate 1:1 with alizarin); less than 0.5 M in series [1] (1,3-dimethylimidazolium methyl sulfate less than 1:1 to alizarin, precipitate still visible); less than 0.5 M in series [1] (N-methylisoquinolinium methyl sulfate 1:1 with alizarin, precipitate still visible); 0.8 M in series [1] (alizarin/1,3-dimethylimidazolium methyl sulfate/N-methylisoquinolinium methyl sulfate 1:0.5:0.5); less than 0.5 M in series [1] (either isolated ionic liquid, alizarin/ionic liquid 1:0.5, no solution obtained). Further, in series [1] (KOH 2 M, addition of 10% (vol.) ionic liquid), the “concentration in aqueous solution of KOH 2 M with ionic liquid” value amounted to 0.5 M. In addition, the solubility in series [1] (setting [3]) turned out to be 500 mM (≈ 120 mg/mL); in series [1] (aqueous KOH solution with ionic liquid, aqueous with cosolvent or surfactant or cyclodextrin, concentration solubilised in aqueous solution of KOH 2 M with ionic liquid, KOH 2 M, 5% (vol.) ionic liquid), 250 mM (≈ 60.1 mg/mL); in series [1] (setting [4]), 100 mM (≈ 24 mg/mL); in series [1] (aqueous KOH solution without ionic liquid, aqueous buffer, soluble concentration in aqueous solution of KOH 2 M, KOH 2 M, without ionic liquid (saturation)), 100 mM (≈ 24 mg/mL).
For `O=C1c2cccc(O)c2C(=O)c2cccc(O)c21`, the results for the solubility in series [1] (setting [3]) and in series [1] (setting [4]) were 500 mM (≈ 120 mg/mL) and 100 mM (≈ 24 mg/mL), respectively.
With `O=C1c2ccccc2C(=O)c2c1cc(S(=O)(=O)[O-])c(O)c2O.[Na+]` [Alizarin redS, Alizarin Red S], the solubility in series [1] (aqueous KOH solution with ionic liquid, aqueous with cosolvent or surfactant or cyclodextrin, Solubility in KOH 2 mol · L^−1 and ionic liquid: Anthraquinone, KOH 2 mol·L^−1, ionic liquid (I-a), (I-b) or (I-c) 0.6 mol·L^−1) is 600 mM; in series [1] (aqueous KOH solution with ionic liquid, aqueous with cosolvent or surfactant or cyclodextrin, solubility in the presence of ionic liquid, KOH 2 mol·L^−1, 0.6 M ionic liquid), 600 mM; in series [1] (setting [4]), 200 mM; in series [1] (aqueous KOH solution without ionic liquid, aqueous buffer, solubility in a solution of KOH 2 mol·L^−1, KOH 2 mol·L^−1, without ionic liquid), roughly 200 mM. For the same compound, the “increase in the intensity of the oxidation peak and the reduction peak (factor)” value in series [2] (0.6 M ionic liquid vs none, 100 mV·s^−1 (FIG. 1)) is on record as 15. In addition, in series [2] (0.6 mol·L^−1 with 0.6 mol·L^−1 ionic liquid, 100 mV·s^−1), the peak current intensity entry is reported as “greater than 60 mA·cm^−2”.
In the case of `Nc1cccc2c1C(=O)c1ccccc1C2=O`, the solubility in series [1] (setting [3]) was 100 mM (≈ 22.3 mg/mL); in series [1] (setting [4]), less than 100 mM. The “natural solubility” value in series [1] is recorded as “very weak”.

The values are drawn from patent US20190148754A1, “USE OF IONIC LIQUIDS AS AN ADJUVANT IN ELECTROCHEMISTRY” (UNIVERSITE DE RENNES 1, priority 2016, published 2019).
